This is an account of results in patent US11364237B2, “Composition for inhibiting cancer metastasis and treating cancer” (ONCOCROSS CO., LTD., priority 2017, dated 2022).

Data set [1] deals with colorectal cancer cell lines CT26, HCT116 and SW480. In words: MTT cell survival rate, colorectal cancer cell lines. Format: cell-based, mouse (CT26), human (HCT116. Particulars: single treatment, 24, 48 and 72 hours; for concentration at which toxicity was shown (cell survival rate): FIGS. 1 to 3. The protocol: In order to confirm the effect of chlorphenesin (named as OC-201), chloroquine (named as OC-202) and chloropyrazine (named as OC-203) alone on the survival rate of colorectal cancer cells, cell survival rate was evaluated for the colorectal cancer cell lines CT26, HCT116 and SW480 cell lines by MTT assay (Promega, Ltd.) according to the manufacturer's protocol. […] The pre-treated cell lines were incubated with 5 mg/mL MTT for 4 hours. Thereafter, the medium was removed, and 150 μL of the solubilization solution and the stop solution were added, followed by incubation at 30° C. for 4 hours. The absorbance of the reaction solution was measured at 570 nm. The cell survival rate was calculated using the following Equation 1. Cell survival rate=absorbance of experimental group (at 570 nm)/absorbance of control (at 570 nm)×100(%) [Equation 1]
The pre-treated cell lines were incubated with 5 mg/mL MTT for 4 hours. Thereafter, the medium was removed, and 150 μL of the solubilization solution and the stop solution were added, followed by incubation at 30° C. for 4 hours. The absorbance of the reaction solution was measured at 570 nm. The cell survival rate was calculated using the above Equation 1.

The subject of data set [2] is pancreatic cancer cell lines Aspc-1, MIAPaCA2 and Panc-1. Kind of data set: MTT cell survival rate, pancreatic cancer cell lines. Particulars: for cytotoxicity (cell survival rate), single administration: up to 1 mM chlorphenesin, up to 100 μM chloropyrazine, 24, 48, 72 hours, FIGS. 30 and 32. Format: cell-based, human. The protocol:
The pre-treated cell lines were incubated with 5 mg/ml MTT for 4 hours. Thereafter, the medium was removed, and 150 μL of the solubilization solution and the stop solution were added, followed by incubation at 30° C. for 4 hours. The absorbance of the reaction solution was measured at 570 nm. The cell survival rate was calculated using the equation 1 as described above.
(§1) The pre-treated cell lines were incubated with 5 mg/ml MTT for 4 hours. Thereafter, the medium was removed, and 150 μL of the solubilization solution and the stop solution were added, followed by incubation at 30° C. for 4 hours. The absorbance of the reaction solution was measured at 570 nm. The cell survival rate was calculated using the above equation 1.

Data set [3] has as its system biliary tract cancer cell line SNU1079. In words: Transwell migration assay with Combination Index. Particulars: 18 hours, FIGS. 51 and 52.
In data set [4] the test system is colorectal cancer cell line CT26. Kind of data set: Wound healing assay at low concentration. The data set is classed as cell-based, mouse. Particulars: 1 μM chlorphenesin; 24 hours; FIG. 59.
Method: Wound healing analysis was performed to measure cell motility. […] After incubation of the cells for 24 hours in the presence or absence of chlorphenesin (1 μM), a photograph of the dyed monolayers was taken with a microscope.
The subject of data set [5] is colorectal cancer cell line HCT116. In words: Wound healing assay. The conditions noted are these: 0, 8 and 24 hours, FIGS. 21 to 23.
In data set [6] the test system is colorectal cancer cell lines HCT116. In words: Soft agar colony formation assay (anchorage independent growth), chlorphenesin alone. The data set is classed as cell-based, human. The conditions noted are these: 3 weeks, FIG. 27.
The subject of data set [7] is colorectal cancer cells CT26 and HCT116. In words: Transwell migration assay at low concentration. Format: cell-based, mouse (CT26), human (HCT116). Particulars: 1 μM chlorphenesin; 8 hours; FIG. 58.
For data set [8], the system named is biliary tract cancer cell lines SNU1079 and SNU308. The conditions noted are these: human, 48 h. The protocol: (§2) The pre-treated cell lines were incubated with 5 mg/ml MTT for 4 hours. Thereafter, the medium was removed, and 150 μL of the solubilization solution and the stop solution were added, followed by incubation at 30° C. for 4 hours. The absorbance of the reaction solution was measured at 570 nm. The cell survival rate was calculated using equation 1 as described above.
as §1

The test system of the next data set is SW480 cell line. Kind of data set: Transwell migration assay, chlorphenesin alone. Format: cell-based, human. Particulars: 18 hours, laminin in lower well, FIGS. 6 and 7.
The subject of a further data set is HCT116 cell line. Kind of data set: Transwell migration assay, chlorphenesin alone. Format: cell-based, human. Particulars: 18 hours, FIGS. 8 and 9.
The next data set relates to CT26 cell line. In words: Transwell migration assay, chlorphenesin alone. The conditions noted are these: 18 hours, FIGS. 10 and 11. Format: cell-based, mouse.
In the next data set the test system is CT26 cell-induced tumors. Kind of data set: CT26 tumor animal model, tumor growth and lung metastasis. Format: in vivo, Balb/c mice.
The next data set concerns SNU 308 cell line. Kind of data set: MTT cell survival rate. The conditions noted are these: after 48 hours, FIG. 47. The data set is classed as cell-based, human. The protocol:
as §2

The next data set has as its system SNU1079. Kind of data set: MTT cell survival rate. Format: cell-based, human. The conditions noted are these: FIG. 47. The protocol: as §2

Method for CT26 cell-induced tumors: Specifically, 60 Balb/c mice were subcutaneously inoculated once with 100 μL of CT26 cell suspension (1×10^7 cells/mL) to induce tumors, thereby producing a xenograft animal model. […] For the chlorphenesin single administration, 10 animal models were abdominally administered with 10 mg/kg chlorphenesin (3 times a week) for 5 weeks or 14 animal models were orally administered with 20 mg/kg chlorphenesin (5 times a week) for 5 weeks. 14 animal models were administered with the same dose of PBS as chlorphenesin as a negative control. […] The body weight of the animal models was measured once a week, and the tumor size was measured once a week from the day of drug administration. After 6 weeks, animal models were anesthetized with ether, and tumors and lungs were collected.

Consider `Clc1cnccn1` [chloropyrazine], for which the “concentration at which not toxic (cell survival rate)” value in data set [1] (FIG. 3) is no more than 100 µM. The “cytotoxicity (cell survival rate), single administration” value in [2] is “did not show cytotoxicity even at high doses”.
Consider `OCC(O)COc1ccc(Cl)cc1` (stereo not drawn) [chlorphenesin], for which the “concentration at which toxicity was shown (cell survival rate)” value in [1] is reported as “more than 500 μM”. In addition, in data set [2], the “cytotoxicity (cell survival rate), single administration” value is “did not show cytotoxicity even at high doses”. For the same molecule, in data set [3], the “concentration at which cell migration was decreased” value is no less than 25 µM and the “concentration at which the decrease of cell migration was remarkable” value was no less than 100 µM. For the same molecule, the “mobility of the CT26 cell line (wound healing)” value in data set [4] is “reduced”. In addition, in [5], the “concentration at which migration was decreased (wound healing)” value was no less than 25 µM. Further, the “concentration at which colony forming ability was decreased” value in data set [6] was no less than 250 µM. For the same molecule, the “invasion ability and migration ability of the cells compared to the control” value in [7] is “significantly reduced”. Further, in data set [8], the “concentration at which apparent cytotoxicity was shown” value is no less than 1000 µM. Further, the “concentration at which cell migration was significantly reduced” value with SW480 cell line is no less than 25 µM. Besides, the “concentration at which cell migration was specially decreased” value in the data set with HCT116 cell line is no less than 250 µM. The “concentration at which cell migration was specially decreased” value in the data set with CT26 cell line was no less than 250 µM. In addition, the “tumor size compared with the control groups” value in the data set on CT26 cell-induced tumors (chlorphenesin 20 mg/kg orally, 5 times a week for 5 weeks, FIG. 61) was “reduction in the tumor size”. In addition, the “cancer metastasis to lungs compared to control groups” value with CT26 cell-induced tumors (chlorphenesin-treated group, 5 weeks dosing, lungs collected after 6 weeks, FIG. 60) is on record as “no cancer metastasis to lungs”.
As for `CCN(CC)CCCC(C)Nc1ccnc2cc(Cl)ccc12` (stereo not drawn) [chloroquine], the “concentration at which toxicity was shown (cell survival rate)” value in data set [1] is “more than 10 μM”. Moreover, the “concentration at which cytotoxicity was shown” value in [2] (single administration, FIG. 31) is no less than 50 µM; with SNU 308 cell line, no less than 50 µM; in the data set with SNU1079 (after 48 hours), no less than 25 µM; in the data set on SNU1079 (for 24 hours) it was no less than 50 µM.
